Experimental data: patent US10064858B2, “Methods and compositions for treating bacterial infections with iron chelators” (THE UNITED STATES OF AMERICA, AS REPRESENTED BY THE …, priority 2011, dated 2018)
Converted amounts (≈) assume the structure as drawn. Like-named read-outs stand apart in the source and are kept apart here.

Columns and labels:
Format in all cases: cell-based
[1] = tested on: Acinetobacter baumannii strain 5711 (AB5711); assay: Growth (OD600) of AB5711 in low iron media with chelators, with or without FeCl3; conditions: AB5711; low iron media; 100 μM or 200 μM chelator added after 4 hr; 24 hr
Experimental: Acinetobacter baumannii strain 5711 (AB5711) was grown overnight in LB media and sub-cultured into low iron media. The tested iron chelators were deferoxamine (DFO), deferiprone (DFP), 2,2-dipyridyl, and VK28. The iron chelators were added after 4 hr of growth.
Bacterial growth was estimated by absorption at OD600 every 4 hr for 24 hr. Optical density (OD) at 600 nm (OD600) as measured by a spectrophotometer is a widely used technique known by one skilled in the art to estimate the total number of bacterial cells present in a broth culture (CFU/ml). The exact amount of OD produced by a culture will depend on the concentration of cells present, the species and strain of microbe present, the growth conditions used, and the wavelength of the light being transmitted. Thus, the relationship between OD and cell concentrations will depend on the specific strain and growth conditions studied. For example, the OD600 of 1 for E. coli is about 1×10^9 CFU/ml.
This example provides further evidence that the removal of iron is responsible for bacterial growth inhibition. A. baumannii isolate 5711 was grown in low iron M9 media supplemented with 0 μM, 10 μM, or 100 μM FeCl3 with and without the addition of 200 μM VK28 following 4 hr of growth. Growth was estimated by absorbance at 600 nm every 4 hr for 24 hr.
This example provides further evidence that the removal of iron is responsible for bacterial growth inhibition. A. baumannii isolate 5711 was grown in low iron M9 media supplemented with 0 μM, 10 μM, 100 μM, or 1000 μM FeCl3 with and without the addition of 50 μg/ml of VK28 following 4 hr of growth. Growth was estimated by absorbance at 600 nm after 20 hours.

P. aeruginosa [2] = assay: MIC, CLSI microdilution (Tables 1 and 6); conditions: Pseudomonas aeruginosa
Experimental: (§1) The minimal inhibitory concentration (MIC) of non-toxic iron chelators was determined against standard strains of MDR bacteria and clinical isolates according to the guidelines of the Clinical and Laboratory Standards Institute (CLSI).
(§2) Individual MICs were determined following the microdilution method recommended by CLSI in cationic-adjusted Mueller-Hinton Broth (CAMHB), or M9 media. […] Tests were performed in triplicate. MIC of iron chelators were determined for noscomial ESKAPE pathogens.
(§3) MIC were determined in CAMHB media as described above in Example 8.

S. aureus = assay: MIC, CLSI microdilution (Tables 1 and 6); conditions: Staphylococcus aureus
Experimental: as §1, §2, §3

E. coli [3] = assay: MIC, CLSI microdilution (Tables 1 and 6)
Experimental: as §1, §2, §3

K. pneumonia [4] = assay: MIC, CLSI microdilution (Tables 1 and 6); conditions: Klebsiella pneumoniae
Experimental: as §1, §2, §3

Acinetobacter baumannii [5] = assay: MIC, CLSI microdilution (Tables 1 and 6)
Experimental: as §1, §2, §3

P. aeruginosa [6] = assay: MIC in RPMI1640 media (Table 2); conditions: Pseudomonas aeruginosa
Experimental: (§4) […] […] Tests were performed in triplicate. MIC of iron chelators were determined for noscomial ESKAPE pathogens.
(§5) This media is closer to the iron levels in the human body. MICs are in ug/mL.

E. coli [7] = assay: MIC in RPMI1640 media (Table 2)
Experimental: as §4, §5

K. pneumonia [8] = assay: MIC in RPMI1640 media (Table 2); conditions: Klebsiella pneumoniae
Experimental: as §4, §5

Acinetobacter baumannii [9] = assay: MIC in RPMI1640 media (Table 2)
Experimental: as §4, §5

[10] = tested on: AB5075, a stain of A. baumannii (Ab); assay: Development of rifampin resistance over 7 days (OD600); conditions: rifampin alone
Experimental: Development of antibiotic-resistant strains is an ongoing problem in the treatment of bacterial infections. In some embodiments, the present technology provides methods and compositions for reducing, inhibiting or preventing formation of antibiotic-resistant bacterial strains. In some embodiments, the iron chelator of the present technology is administered to a patient as a prophylactic before antibiotic treatment or during antibiotic treatment. In some embodiments, the iron chelator is added concurrently with an antibiotic.
Cultures of AB5075, a stain of A. baumannii (Ab), was cultured in the presence of Rifampin alone, the iron chelator ApoL1 alone or Rifampin combination with ApoL1 for 7 days.

E. coli strain EC35218 = assay: Growth (OD600) with chelator, Rifampin or both; conditions: CAMHB
Experimental: E. coli strain EC35218 was grown in CAMHB and challenged with 1.5×MIC compound 4 (Var) or 1.5×MIC Triapine (Tri) with or without 0.75×MIC Rifampin (Rif). Growth was estimated by absorbance at 600 nm (y-axis) at 0 or 24 hours.

E. coli EC35218 = assay: Time-kill assay in CAMHB; conditions: ¾MIC Rifampicin alone; CAMHB
Experimental: Reductions in colony forming units (CFU)/mL were determined over time (time-kill assay) after exposure to VK28 and deferiprone (DFP), the two iron chelators that performed best in MIC assays when compared to controls. To better represent the iron content found in the human body, MIC and time-kill assays were also determined in minimal media and tissue culture media. Time-Kill assays were performed as previously described in G. P. Neupane et al., “In vitro time-kill activities of ciprofloxacin alone and in combination with the iron chelator deferasirox against Vibrio vulnificus,” European Journal of Clinical Microbiology and Infectious Diseases, 407-410 (2010); and R. L. White, et al., “Comparison of Three Different In Vitro Methods of Detecting synergy: Time-Kill, Checkerboard, and E test,” Journal of Antimicrobial Agents and Chemotherapy, 1914-1918 (1996). Initial inocula, for example 1×10^6 CFU/mL or 1×10^7 CFU/mL were challenged with iron chelator with and/or without an antibiotic. Cells were allowed to grow in CAMHB at 37° C. for 24 hours. Time-kill results were analyzed by determining the change in log 10 numbers of CFU/ml at 0, 6, and 24 h, compared to counts at 0 h. Antimicrobials were considered bactericidal at the lowest concentration that reduced the size of the original inoculum by >3 log 10 CFU/ml (99.9%) over each of the time periods and were considered bacteriostatic if the inoculum's size was reduced by 0 to <3 log 10 CFU/ml.
In this example, time-kill assays were performed as described in Example 9 against different multi-drug resistant bacteria, namely E. coli and MRSA.
In this example, time-kill assays were performed as described in Example 9 using ApoL1 as the iron chelator against two different E. coli strains. […] Time-kill results were analyzed by determining the change in log 10 numbers of CFU/mL at 6 and 24 hours.
In this example, time-kill assays were performed as described in Example 9 using Apo6619 as the iron chelator in combination with Rifampin against E. coli 35718. […] Time-kill results were analyzed by determining the change in log 10 numbers of CFU/mL at 0, 5 and 24 hours.

[11] = tested on: A. baumannii strain AB19606; assay: Growth (OD600) with chelator, Rifampin or both; conditions: CAMHB
Experimental: A. baumannii strain AB19606 was grown in CAMHB and challenged with 1.5×MIC compound 4 (Var) or 1.5×MIC Triapine (Tri) with or without 0.75×MIC Rifampin (Rif). Growth was estimated by absorbance at 600 nm (y-axis) at 0 or 24 hours.

[12] = ATCC27853, ATCC 27853, Table 1, read-out: MIC of Iron Chelators
[13] = PAO1, Table 1, read-out: MIC of Iron Chelators
[14] = ATCC25923, ATCC 25923, Table 1, read-out: MIC of Iron Chelators
[15] = ATCC 43300 (MRSA), Table 1, read-out: MIC of Iron Chelators
[16] = Escherichia coli, ATCC35218, ATCC 35218, Table 1, read-out: MIC of Iron Chelators
[17] = Escherichia coli, ATCC43888, ATCC 43888 (0157:H7), Table 1, read-out: MIC of Iron Chelators
[18] = ATCC700603, ATCC 700603, Table 1, read-out: MIC of Iron Chelators
[19] = BAA2146, BAA-2146, Table 1, read-out: MIC of Iron Chelators
[20] = ATCC17978, ATCC 17978, Table 1, read-out: MIC of Iron Chelators
[21] = ATCC19606, ATCC 19606, Table 1, read-out: MIC of Iron Chelators
[22] = ATCC27853, ATCC 27853, read-out: MIC of Iron Chelators
[23] = PAO1, read-out: MIC of Iron Chelators
[24] = Escherichia coli, 35718, read-out: MIC of Iron Chelators
[25] = Escherichia coli, ATCC43888, ATCC 43888 (0157:H7), read-out: MIC of Iron Chelators
[26] = ATCC700603, ATCC 700603, read-out: MIC of Iron Chelators
[27] = BAA2146, BAA-2146, read-out: MIC of Iron Chelators
[28] = ATCC17978, ATCC 17978, read-out: MIC of Iron Chelators
[29] = ATCC19606, ATCC 19606, read-out: MIC of Iron Chelators
[30] = alone: 1.5×MIC chelator or 0.75×MIC Rifampin
[31] = 1.5×MIC chelator in combination with 0.75×MIC Rifampin

Compound	bacterial growth (OD600 growth curves) [1]	MIC (P. aeruginosa [2]; [12]) [µg/mL]	MIC (P. aeruginosa [2]; [13]) [µg/mL]	MIC (S. aureus; [14]) [µg/mL]	MIC (S. aureus; [15]) [µg/mL]	MIC (E. coli [3]; [16]) [µg/mL]	MIC (E. coli [3]; [17]) [µg/mL]	MIC (K. pneumonia [4]; [18]) [µg/mL]	MIC (K. pneumonia [4]; [19]) [µg/mL]	MIC (Acinetobacter baumannii [5]; [20]) [µg/mL]	MIC (Acinetobacter baumannii [5]; [21]) [µg/mL]	MIC (P. aeruginosa [6]; [22]) [µg/mL]	MIC (P. aeruginosa [6]; [23]) [µg/mL]	MIC (E. coli [7]; [24]) [µg/mL]	MIC (E. coli [7]; [25]) [µg/mL]	MIC (K. pneumonia [8]; [26]) [µg/mL]	MIC (K. pneumonia [8]; [27]) [µg/mL]	MIC (Acinetobacter baumannii [9]; [28]) [µg/mL]	MIC (Acinetobacter baumannii [9]; [29]) [µg/mL]	reduction of bacteria (absorbance at 600 nm, 24 hours) (E. coli strain EC35218; [30])	further results
CC(=O)N(O)CCCCCNC(=O)CCC(=O)N(O)CCCCCNC(=O)CCC(=O)N(O)CCCCCN [DFO, deferoxamine]	little effect	> 500	> 500	> 500	> 500	> 500	> 500	> 500	> 500	> 500	> 500	> 500	> 500	> 500	> 500	> 500	> 500	> 500	> 500	–	–
c1ccc(-c2ccccn2)nc1 [DIP, 2,2-dipyridyl]	reduced bacterial growth to a significant extent	250	250	500	250	64	64	500	250	64	64	250	250	64	64	250	125	32	32	–	–
CO[C@H]1/C=C/O[C@@]2(C)Oc3c(C)c(O)c4c(O)c(c(/C=N/N5CCN(C)CC5)c(O)c4c3C2=O)NC(=O)/C(C)=C\C=C\[C@H](C)[C@H](O)[C@@H](C)[C@@H](O)[C@@H](C)[C@H](OC(C)=O)[C@@H]1C [Rifampin]	–	–	–	–	–	–	–	–	–	–	–	–	–	–	–	–	–	–	–	did not result in a reduction of bacteria	time until antibiotic-resistant strains develop [10]: less than one day; CFU/mL at 24 hours (E. coli EC35218): about 1×10^7 CFU/mL; reduction of bacteria (absorbance at 600 nm, 24 hours) [11, 30]: no reduction of bacteria
NC(=S)N/N=C/c1ncccc1N [Triapine, 3-aminopyridine-2-carboxaldehyde thiosemicarbazone]	–	–	–	–	–	–	–	–	–	–	–	–	–	–	–	–	–	–	–	did not result in a reduction of bacteria	MIC (P. aeruginosa [2]; PA27853, CAMHB, read-out: MIC): 250 µg/mL (≈ 1280 µM); MIC (S. aureus; SA43300, CAMHB, read-out: MIC): 125 µg/mL (≈ 640 µM); MIC (E. coli [3]; EC43888, CAMHB): 125 µg/mL (≈ 640 µM); MIC (E. coli [3]; Escherichia coli, EC35218, CAMHB, read-out: MIC): 125 µg/mL (≈ 640 µM); MIC (K. pneumonia [4]; KP700603, CAMHB, read-out: MIC): 250 µg/mL (≈ 1280 µM); MIC (Acinetobacter baumannii [5]; AB19606, CAMHB, read-out: MIC): 32 µg/mL (≈ 164 µM); reduction of bacteria (absorbance at 600 nm, 24 hours) (E. coli strain EC35218; [31]): significant reduction in bacteria; reduction of bacteria (absorbance at 600 nm, 24 hours) [11, 31]: significant reduction in bacteria; reduction of bacteria (absorbance at 600 nm, 24 hours) [11, 30]: no reduction of bacteria
